Data on 2 compounds can be found in paper PMC9765439, “Systems-Wide Dissection of Organic Acid Assimilation in Pseudomonas aeruginosa Reveals a Novel Path To Underground Metabolism” (mBio, 2022).

The target of assay [1] is T1, GltAPa (citrate synthase) (Pseudomonas aeruginosa, UniProt P14165).
T1 construct: gene gltA; full-length ORF, 429 aa; pET-19m, N-terminal TEV-cleavable His6 tag, cut; E. coli host; hexamer in asymmetric unit
T1 sequence (P14165 1-428): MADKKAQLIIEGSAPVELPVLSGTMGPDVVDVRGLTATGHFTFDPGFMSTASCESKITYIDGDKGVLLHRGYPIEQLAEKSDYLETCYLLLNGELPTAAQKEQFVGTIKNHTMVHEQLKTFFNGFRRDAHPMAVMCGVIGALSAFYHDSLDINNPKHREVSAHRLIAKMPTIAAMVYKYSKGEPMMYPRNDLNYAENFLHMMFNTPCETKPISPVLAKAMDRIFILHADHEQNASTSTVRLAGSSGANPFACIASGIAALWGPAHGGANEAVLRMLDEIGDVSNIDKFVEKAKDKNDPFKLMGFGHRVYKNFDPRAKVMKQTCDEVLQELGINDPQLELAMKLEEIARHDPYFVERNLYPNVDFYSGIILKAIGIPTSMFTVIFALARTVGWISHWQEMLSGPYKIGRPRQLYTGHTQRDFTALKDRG
In words: DTNB (TNB release) spectrophotometric assay, […] nm. It counts as biochemical. Particulars: 0.5 mM oxaloacetate; 50 mM HEPES pH 7.5, 0.1 M KCl, 0.54 M glycerol; 37 °C.

Assay [2] deals with T2, PrpCPa (2-methylcitrate synthase, 2-MCS) (Pseudomonas aeruginosa, UniProt Q9I5E3).
T2 construct: gene prpC; pET-19m, N-terminal TEV-cleavable His6 tag, cut; E. coli host; homodimer
T2 sequence (Q9I5E3 1-375): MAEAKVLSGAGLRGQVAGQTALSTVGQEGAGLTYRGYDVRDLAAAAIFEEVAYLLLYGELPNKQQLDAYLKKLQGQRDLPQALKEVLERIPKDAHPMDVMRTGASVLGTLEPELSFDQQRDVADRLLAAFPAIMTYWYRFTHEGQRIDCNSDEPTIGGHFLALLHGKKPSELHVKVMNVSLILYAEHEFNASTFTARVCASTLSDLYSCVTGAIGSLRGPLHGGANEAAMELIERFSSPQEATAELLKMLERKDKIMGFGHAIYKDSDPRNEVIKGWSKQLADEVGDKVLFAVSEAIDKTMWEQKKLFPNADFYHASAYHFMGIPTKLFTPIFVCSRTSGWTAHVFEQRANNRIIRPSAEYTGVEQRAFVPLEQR
In words: X-ray crystallography. It counts as binding. The conditions noted are these: 2.5 mM oxaloacetate in crystallisation, Bis-Tris pH 5.5; active site of chain D only.

For the compound `CC(=O)SCCNC(=O)CCNC(=O)[C@H](O)C(C)(C)COP(=O)(O)OP(=O)(O)OC[C@H]1O[C@@H](n2cnc3c(N)ncnc32)[C@H](O)[C@@H]1OP(=O)(O)O` [acetyl-CoA], the “DTNB (TNB release) spectrophotometric assay, 412 nm” value in assay [1] is on record as “Purified GltAPa is a citrate synthase with no detectable 2-methylcitrate synthase activity”.

Turning to `O=C(O)CC(=O)C(=O)O` [oxaloacetate], the X-ray crystallography result in assay [2] is reported as “Crystal structure of oxaloacetate-bound PrpCPa represented in cartoon (PDB: 6S87)”.
